Source: PMC10868801, “Characterization of covalent inhibitors that disrupt the interaction between the tandem SH2 domains of SYK and FCER1G phospho-ITAM” (PLOS ONE, 2024)
Converted amounts (≈) assume the structure as drawn. Where two headings read alike, the source gives them in different places. Non-standard residues stand in square brackets, D forms with d. Residues, ends and D or L forms follow the SMILES beside them. Primed or numbered codes have the meaning given here. No end group written: not given here. pY = N[C@@H](Cc1ccc(OP(=O)(O)O)cc1)C(=O)O; FITC′ = not defined here

Tests used:
SH-SY5Y cells = test system: SH-SY5Y cells; parameters: method as in PMID 31324720; settings: 5 μM, cited from earlier work
Tg Tau P301S mice = settings: cited from earlier work
[1] = test system: primary neuron-glia cultures; parameters: method as in PMID 37009452; settings: cited from earlier work
[2] = target: T1, SYK-tSH2 / FCER1G p-ITAM interaction (Homo sapiens, UniProt P43405); experiment: TR-FRET assay of 6xHis-SYK-tSH2 with FITC-labeled FCER1G p-ITAM peptide; type: biochemical
T1 construct: the tSH2 domain of SYK (residues M6-N269) fused to an N-terminal 6×His tag; made in house; host or cells: E. coli BL21(DE3)-R3-pRARE
Description: To facilitate identification of inhibitors of the SYK-FCER1G interaction, we developed a TR-FRET assay using recombinant protein comprising the tSH2 domain of SYK (residues M6-N269) fused to an N-terminal 6×His tag (S1A Fig). The TR-FRET assay is based on the interaction of a FITC-labeled FCER1G p-ITAM peptide to the 6×His-SYK-tSH2 protein in complex with a terbium-conjugated anti-His antibody (Tb-Ab) (Fig 3B). Once excited, a TR-FRET signal is generated from the Tb donor to the FITC acceptor fluorophore. […] To enable uHTS for large scale screening of small molecule libraries, we miniaturized the TR-FRET assay from 96-well plate format to a 1536-well.
TR-FRET experiments were performed in 20 μL reactions, using 384-well shallow-well microplates (PerkinElmer). Final reaction components contained 6xHis-SYK-tSH2 (SYKA-c020 tagged) (4 nM), FITC-conjugated FCER1G peptide (8 nM), Tb-conjugated anti-6xHis antibody (53 ng/ml; Cisbio) in assay buffer containing 25 mM HEPES (pH 7.5), 200 mM NaCl, 0.1% BSA and 0.05% Tween-20. After a 2h incubation (at room temperature), TR-FRET signals were measured on a BMG Labtech PHERAstar FSX reader using a Lanthascreen Optics Module. A 200 μs delay was used after excitation with a flash lamp before measurement of fluorescence emission at […]. TR-FRET ratios of fluorescent intensity at 520 nm to 490 nm were calculated. The half maximal inhibitory concentration (IC50) was determined by fitting a four parametric logistic curve to the data.

[3] = target: T2, full length SYK and FCER1G (Homo sapiens, UniProt P43405); experiment: GST pull-down (GST-PD) of GST-SYK and FCER1G-Flag from HEK293T cell lysates; type: biochemical; settings: for PPI disruption in GST-PD: dose-response format; for Inhibition of SYK-GST / FCER1G-Flag interaction in pulldown: single concentration (100 μM)
T2 construct: full length GST-SYK and FCER1G-Flag were co-expressed in HEK293 cells prior to lysis; expressed in transfected cells; host or cells: HEK293T (CRL-3216, ATCC)
Procedure: Pull-down assays were used as an orthogonal assay to determine if the compounds could disrupt the PPI between full length SYK and FCER1G proteins from cell lysates. To optimize GST pulldown assays, full length GST-SYK and FCER1G-Flag were co-expressed in HEK293 cells prior to lysis and the protein expression and cell lysate concentrations tested (Fig 4A). All 40 compounds that progressed from uHTS were tested via GST-PD at a single concentration (100 μM) to determine if they could inhibit the PPI between the full-length proteins, with the p-ITAM FCER1G peptide used as a positive control (Fig 4B). […] Compound 24 contains a promiscuous maleimide, which is well known to react indiscriminately with proteins.
GST-, VF-tagged human SYK and FCER1G plasmids for mammalian expression were generated using Gateway cloning technology (Invitrogen) as described previously. The DNA was purified using ZymoPURE Plasmid Maxiprep Kit (D4203, Zymo Research).
WB secondary antibodies: peroxidase-conjugated AffiniPure Goat Anti-Mouse IgG (H+L) (115-035-003, Jackson Immuno Research) 1:5000 dilution in TBST. GST pulldown was performed as described with minor changes. HEK293T (CRL-3216, ATCC) were cultured in Dulbecco’s modified Eagle’s medium with 4.5 g/L glucose, L-glutamine, and sodium pyruvate (10–013-CV, Corning) supplemented with 10% fetal bovine serum and 1% penicillin/streptomycin solution (30–002-CI, CellGro). Cells were incubated at 37°C in humidified conditions with 5% CO2. The HEK293T cells were transfected using 1 mg/mL Polyethylenimine (PEI; 23966, Polysciences) in a ratio of 3 μL to 1 μg DNA. The proteins were expressed for 48 h at 37°C. Cell pellets were re-suspended in the SYK lysis buffer (25 mM HEPES, pH 7.5, 200 mM NaCl, 0.5% Triton X100 (T9284-1L, Sigma-Aldrich), followed by sonication for 10 s (5 s on, 5 s off) at 4°C. Cells were pelleted by 10 min centrifugation at 13,000 rpm at 4°C. The cleared lysates were first pre-incubated with compounds for 30 min and then incubated with glutathione sepharose 4B beads (17075605, Cytiva Sweden AB) at 4°C for 2 h with rotation. After the incubation, beads were washed three times with the SYK lysis buffer, eluted by boiling in sodium dodecyl sulfate-polyacrylamide gel electrophoresis (SDS–PAGE) loading buffer (1610737, Bio-Rad), and analyzed by western blotting.

[4] = Compound solubility with nephelometer; type: physicochemical; settings: aqueous buffer, kinetic from dmso stock, PBS, 90 min at room temperature
Procedure: Stock compound (10 mM in DMSO) was serial diluted in PBS (21-040-CV, Corning) in 96-well Costar Assay plate (3904, Corning). After incubating compound in PBS for 90 min at room temperature, the Nephelometric turbidity units (NTUs) were measured with NEPHELOstar (BMG LABTECH, Cary, North Carolina). 0.2 s was used for a measure time and PBS only as the background. Each sample was tested in triplicate. Dose-response data was analyzed by GraphPad Prism and the solubility concentration is defined at the concentration that increases the NTUs at the turning point of the curve.

MSN = MSN (Homo sapiens, UniProt P26038); experiment: Covalent labelling and intact mass spectrometry (selectivity); settings: 100 μM, 1 h, room temperature; four available cysteines
SYK-tSH2 [5] = target: T3, SYK-tSH2 (Homo sapiens, UniProt P43405); experiment: Covalent labelling and intact mass spectrometry; type: binding; parameters: tandem SH2 domains of human SYK (residues M6-N269); 6xHis (N, cleaved yes); made in house; host or cells: E. coli BL21(DE3)-R3-pRARE; settings: 100 μM, 1 h
Description: The HTS hits 13 and 37 contain a kojic acid moiety, which is proposed to react covalently with proteins in the literature. As a result, we thought that it was likely these compounds are also reacting covalently with SYK-tSH2. […] When bound to the protein, these kojic acid-derived compounds have a 94 Da decrease in mass due to the loss of the pyridin-2-amine leaving group to reveal a Michael acceptor that can react covalently with cysteine residues (Fig 5B).
To expand on the initial 40 putative hits that were identified via uHTS (Fig 3D), additional commercially available structural analogues were ordered and screened via TR-FRET and differential scanning fluorimetry (DSF) (S1 Table). […] The observation of a substantial reduction in protein melting temperature motivated us to determine if the compounds interacted covalently with the SYK-tSH2 domains. Additionally, since the thiourea in these small molecules is reported to react via oxidation, the compounds could be capable of forming a covalent disulfide bond with cysteine residues on SYK [39]. We used compound 1, which is a known covalent modifier of SYK-tSH2, as a positive control in the mass spectrometry analysis. […] Literature reports support that this type of chemical reaction can occur in DMSO, forming a disulfide bond. […] Like we had originally observed for the older DMSO stock solution of 42 (Fig 6C), 44 forms two to four mass adducts (422 Da and 844 Da) more than the protein mass when incubated SYK-tSH2 for 1 h (Fig 6D). […] Due to the mass adducts of two to four (422 Da and 844 Da), we propose that 44 is forming a disulfide bond with between two or four cysteines on SYK-tSH2 (Fig 6G).

[6] = LCMS characterization of fresh versus older DMSO stocks; type: physicochemical; settings: older DMSO stocks versus freshly prepared solutions
Description: To expand on the initial 40 putative hits that were identified via uHTS (Fig 3D), additional commercially available structural analogues were ordered and screened via TR-FRET and differential scanning fluorimetry (DSF) (S1 Table). […] The observation of a substantial reduction in protein melting temperature motivated us to determine if the compounds interacted covalently with the SYK-tSH2 domains. Additionally, since the thiourea in these small molecules is reported to react via oxidation, the compounds could be capable of forming a covalent disulfide bond with cysteine residues on SYK [39]. We used compound 1, which is a known covalent modifier of SYK-tSH2, as a positive control in the mass spectrometry analysis. […] Literature reports support that this type of chemical reaction can occur in DMSO, forming a disulfide bond. […]
Supplementary file pone.0293548.s005.tiff: S4 Fig Identification of active disulfide compounds which form in DMSO solutions of compounds 42 and 43. […] LCMS Calculated for [M+H]^+ C7H9N4O2S: 213.04; observed: 213.1 [M+H]^+. […] LCMS Calculated for [M+H]^+ C14H15N8O4S2: 423.06; observed: 423.0 [M+H]^+. […] LCMS Calculated for [M+H]^+ C10H15N4O2S: 255.08; observed: 255.1 [M+H]^+. […] LCMS Calculated for [M+H]^+ C20H27N8O4S2: 507.15; observed: 507.1 [M+H]^+. […]

SYK-tSH2 [7] = target: T3, SYK-tSH2; experiment: Bio-layer interferometry (BLI) direct binding; settings: biotinylated SYK-tSH2
[8] = target: 6xHis-SYK-tSH2 (tandem SH2 domains of human SYK, residues M6-N269, SYKA-c020 tagged) (human) (UniProt P43405); experiment: AlphaScreen or HTRF; TR-FRET competition: 6xHis-SYK-tSH2 4 nM with Tb-conjugated anti-6xHis antibody, FITC-conjugated FCER1G peptide 8 nM, unlabeled peptide titrated; 25 mM HEPES pH 7.5, 200 mM NaCl, 0.1% BSA, 0.05% Tween-20; 2 h at room temperature
[9] = competition of FITC-labeled FCER1G p-ITAM peptide by unlabeled peptide

Chain of MSN (P26038 whole entry, species assumed, the tested form may be a part): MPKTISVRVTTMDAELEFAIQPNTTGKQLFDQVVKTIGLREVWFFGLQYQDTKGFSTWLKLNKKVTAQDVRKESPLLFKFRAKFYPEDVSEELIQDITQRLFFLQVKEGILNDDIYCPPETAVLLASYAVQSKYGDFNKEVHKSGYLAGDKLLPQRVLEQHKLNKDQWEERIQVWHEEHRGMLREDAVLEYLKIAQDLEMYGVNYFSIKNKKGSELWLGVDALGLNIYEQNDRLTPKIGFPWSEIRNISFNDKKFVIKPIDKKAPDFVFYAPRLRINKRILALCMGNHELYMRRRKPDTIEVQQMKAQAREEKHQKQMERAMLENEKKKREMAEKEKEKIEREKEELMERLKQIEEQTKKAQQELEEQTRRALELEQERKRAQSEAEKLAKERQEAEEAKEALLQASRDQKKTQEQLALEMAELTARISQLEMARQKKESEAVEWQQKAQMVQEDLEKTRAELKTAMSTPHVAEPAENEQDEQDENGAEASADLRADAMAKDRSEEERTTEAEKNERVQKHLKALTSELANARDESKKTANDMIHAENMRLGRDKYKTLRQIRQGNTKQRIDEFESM

## COc1ccc(-c2cc3nccn3c(Nc3ncccc3C(N)=O)n2)cc1OC.Cl.Cl [BAY61-3606, 2-[7-(3,4-Dimethoxyphenyl)-imidazo[1,2-c]pyrimidin-5-ylamino]nicotinamide Dihydrochloride]
SH-SY5Y cells
  p-AKT, p-mTOR and p-p70 S6K levels: reduces p-AKT, p-mTOR, and p-p70 S6K levels
SH-SY5Y cells; in vitro
  Phosphorylated and total tau levels: reduces phosphorylated and total tau levels
Tg Tau P301S mice; Tg Tau P301S mice, 20 mg/kg, 12 weeks
  Levels of phospho-tau and total tau: reduced levels of phospho-tau (p-tau) and total tau (t-tau)
Tg Tau P301S mice; mouse tauopathy models
  Effect in mouse tauopathy models: decreased tau accumulation, neuronal and synaptic loss, neuroinflammation, and reversed defective autophagy
[1]
  Microglial-mediated phagocytosis of synapses and neurons: reduced microglial-mediated phagocytosis of synapses and neurons
[1]; primary neuron-glia cultures
  LPS-induced neuronal loss: prevented lipopolysaccharide (LPS)-induced neuronal loss

## CC(C)C[C@H](NC(=O)CNC(=O)[C@@H](NC(=O)[C@H](Cc1ccc(OP(=O)(O)O)cc1)NC(=O)[C@@H](NC(=O)CNC(=O)[C@@H](N)CC(=O)O)C(C)C)[C@@H](C)O)C(=O)N[C@@H](CO)C(=O)N[C@H](C(=O)N[C@@H](CCCNC(=N)N)C(=O)N[C@@H](CC(N)=O)C(=O)N[C@@H](CCC(N)=O)C(=O)N[C@@H](CCC(=O)O)C(=O)N[C@H](C(=O)N[C@@H](Cc1ccc(OP(=O)(O)O)cc1)C(=O)N[C@@H](CCC(=O)O)C(=O)N[C@H](C(=O)N[C@@H](CC(C)C)C(=O)N[C@@H](CCCCN)C(=O)N[C@@H](Cc1c[nH]cn1)C(=O)O)[C@@H](C)O)[C@@H](C)O)[C@@H](C)O [FCER1G p-ITAM peptide] (H-DGV[pY]TGLSTRNQET[pY]ETLKH-OH)
[2]; [9]
  IC50: 12 nM

## O=c1cc(CO)oc(C(Nc2ccccn2)c2ccc(F)cc2)c1O (stereo not shown) [compound 13]
[3]
  PPI disruption in GST-PD: confirmed to disrupt the PPI
  Inhibition of SYK-GST / FCER1G-Flag interaction in pulldown: able to inhibit the interaction
[4]
  solubility at 90 min: 100 µM (≈ 34.2 µg/mL)
MSN
  Number of mass adducts on MSN: one weak mass adduct
SYK-tSH2 [5]; room temperature
  Number of mass adducts on SYK-tSH2: between one and five

## O=C1C=CC(=O)N1c1ccc(Sc2ccc(N3C(=O)C=CC3=O)cc2)cc1 [compound 24]
[3]
  PPI disruption in GST-PD: confirmed to disrupt the PPI
  Inhibition of SYK-GST / FCER1G-Flag interaction in pulldown: able to inhibit the interaction

## CC(C)n1c(S)nc2c1c(=O)n(C)c(=O)n2C [compound 43]
[2]
  IC50: 3000 ± 1700 nM
[6]
  Stability in DMSO stock solution: had formed corresponding disulfide dimers in DMSO over time
SYK-tSH2 [7]
  BLI KD: did not bind
SYK-tSH2 [7]; read-out: BLI KD
  Kd: > 100000 nM
SYK-tSH2 [5]; older DMSO stock solutions
  Covalent modification of SYK-tSH2: did not demonstrate covalent attachment

## FCER1G-nonphospho-ITAM[62–81]-FITC (peptide)
[8]
  IC50: > 1000 nM

## FCER1G-phospho-ITAM[62–81] (peptide)
[8]
  IC50: 12 nM

## non-phosphorylated FCER1G ITAM peptide: non-phosphorylated FCER1G ITAM peptide used as control (DGVYTGLSTRNQETYETLKH-{FITC′})
[2]; [9]
  IC50: > 1000 nM
